Test results published in PubChem BioAssay (NCI).
Values joined by “and” are separate entries in the source; they are usually repeats but may differ in a detail not shown here. Equal entries are not always repeated.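 The compound was tested at five concentrations on cells cultured in 96-well plates, with a 48-hour exposure period. GI50 = concentration required for 50% inhibition of growth. At the TGI there is no net growth.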

Experiments:
Assay in all cases: NCI anticancer screen, dose series, 48 h
[1] = system: MDA-MB-231 breast
[2] = system: HCT-15 colon
[3] = system: OVCAR-5 ovarian
[4] = system: U251 CNS
[5] = system: SK-MEL-5 melanoma
[6] = system: UACC-62 melanoma
[7] = system: NCI/ADR-RES ovarian
[8] = system: SR leukemia

Compound | GI50 [1] | TGI [1] | GI50 [2] | TGI [2] [µM] | GI50 [3] | TGI [3] | GI50 [4] | TGI [4] | GI50 [5] | TGI [5] | GI50 [6] | TGI [6] | GI50 [7] | TGI [7] | GI50 [8] [µM] | TGI [8] [µM]
COC(=O)c1ccc2[nH]c(O)c(C(=Nc3ccc(N(C)C(=O)CN4CCN(C)CC4)cc3)c3ccc4c(c3)OCO4)c2c1 | 1.08 µM | 2.76 µM | 1.52 µM | 5.8 | 1.71 µM | 3.72 µM | 0.884 µM | 2.5 µM | 0.878 µM | 2.17 µM | 2.1 µM | 6.86 µM | 10.7 µM | 34 µM | 0.232 | 2.93
COc1ccc2c(c1)OC1=C(C(=O)OC1)C2c1cc(OC)c2c(c1)OCCO2 (stereo not given) | 0.156 µM | > 94.6 µM | 0.0531 µM | > 100 | 0.126 µM | > 100 µM | 0.0433 µM | – | 0.0347 µM | 0.535 µM | 0.0456 µM | > 100 µM | 0.0279 µM | 0.0915 µM | 0.0318 | > 100
CCN(CC)CCNC(Cc1ccccc1)c1ccc(OCc2ccccc2)cc1 (stereo not given) | 1.92 µM | 6.65 µM | 3.36 µM | 13 | 7.02 µM | 22.4 µM | 3.41 µM | 15.3 µM | 1.97 µM | 4.46 µM | 1.92 µM | 3.89 µM | 9.87 µM | 23.2 µM | 2.35 | 6.74
O=C(O)CCCc1ccc2ccc3ccccc3c2c1 | – | > 100 µM | – | > 100 | – | > 100 µM | – | > 100 µM | – | > 100 µM | – | > 100 µM | – | > 100 µM | – | > 100
C=C(C)[C@@H]1CC[C@]2(COCCCN)CC[C@]3(C)[C@H](CC[C@@H]4[C@@](C)(CCCNCCCN)[C@H](C(=C)C)CC[C@]43C)[C@@H]12 | 1.8 µM | 3.29 µM | 1.3 µM | 2.63 | 1.71 µM | 3.12 µM | 1.7 µM | 3.19 µM | 1.81 µM | 3.27 µM | 1.71 µM | 3.22 µM | 1.88 µM | 3.63 µM | 1.32 | 3.59
O=C(Oc1ccc[nH]c1=O)c1cc([N+](=O)[O-])cc([N+](=O)[O-])c1 | > 100 µM | > 100 µM | 81 µM | > 100 | > 100 µM | > 100 µM | > 100 µM | > 100 µM | 34.3 µM | > 100 µM | 20.9 µM | > 100 µM | > 100 µM | > 100 µM | 74.8 | > 100
O=C1C(=O)c2ccccc2C(O)=C1C(C1=C(O)c2ccccc2C(=O)C1=O)c1ccc(Cl)cc1 | – | 22.7 µM | – | 32 | – | 17.3 µM | – | 16.3 µM | – | 19.9 µM | – | 23.5 µM | – | > 77.5 µM | – | 24.7
COc1cc(C2c3cc4c(cc3OC(C)(N3CCCC3)C2C)OCO4)cc(OC)c1OC (stereo not given) | – | 2.42 µM | – | 11.3 | – | > 20.5 µM | – | 23.3 µM | – | 1.58 µM | – | 19.1 µM | – | 0.522 µM | – | 9.62
O=C(O)c1ccc(CN2CCC(CN[C@@H]3C[C@H]3c3ccccc3)CC2)cc1 | > 100 µM | > 100 µM | > 100 µM | > 100 | > 100 µM | > 100 µM | > 100 µM | > 100 µM | > 100 µM | > 100 µM | > 100 µM | > 100 µM | > 100 µM | > 100 µM | > 100 | > 100
CCN(CC)CCCC(CCl)Nc1ccnc2cc(Cl)ccc12 (stereo not given) | 16.3 µM and 5.11 µM | 79.5 µM and > 43.1 µM | 24.9 µM and 23.9 µM | > 100 | 11.4 µM and 23.5 µM | 28.6 µM and > 61.3 µM | 23.4 µM and > 50 µM | 69.7 µM and > 100 µM | 10.3 µM and 13 µM | 23.5 µM and 28.6 µM | 20 µM and 6.69 µM | 38.7 µM and 34.8 µM | 25.2 µM and 23.1 µM | 57.3 µM and 67.7 µM | 0.421 | 3.25
CCN1C(=O)c2ccc3c4c(ccc(c24)C1=O)C(=O)N(CCCNCc1ccccc1OC)C3=O | 0.791 µM | 9.31 µM | 0.291 µM | 1.07 | 1.35 µM | 3.74 µM | 1.25 µM | 3.32 µM | 0.164 µM | 0.319 µM | 0.468 µM | 1.63 µM | 1.04 µM | 5.96 µM | 0.466 | 6.3
Cc1ccc(S(=O)(=O)N=Nc2c(O)[nH]c3cc(O)c(C(=O)O)cc23)cc1 | – | > 100 µM | – | > 100 | – | > 100 µM | – | > 100 µM | – | > 100 µM | – | > 100 µM | – | > 100 µM | – | > 100
Cc1nnc(-c2ccc(C)c(-c3ccc(C(=O)Nc4cccc(C#N)c4)cc3)c2)o1 | > 25 µM | > 25 µM | > 25 µM | > 25 | > 25 µM | > 25 µM | > 25 µM | > 25 µM | > 16.2 µM | > 25 µM | > 25 µM | > 25 µM | > 25 µM | > 25 µM | > 25 | > 25
CCN1C(=O)/C(=C/c2c(Cl)[nH]c3cc(C)c(OC)cc23)c2ccccc21 | 2.43 µM | 54.1 µM | 4.19 µM | > 100 | 16.5 µM | 85.3 µM | 4.53 µM | 20.2 µM | 2.99 µM | 8.19 µM | 0.526 µM | 23.7 µM | 4.65 µM | 65 µM | 2.49 | > 100
C=C(C)C1CC2(C)C(C)CC(O)CC2C(OC(=O)C=C(C)C)C1O (stereo not given) | – | > 100 µM | – | > 100 | – | > 100 µM | – | > 100 µM | – | 49.2 µM | – | > 100 µM | – | > 100 µM | – | 51.9
CC1(C)N=C(N)N=C(N)N1c1ccc(CCC(=O)Nc2ccc(S(=O)(=O)F)cc2)c(Cl)c1 | > 64.9 µM | > 100 µM | 2.92 µM | > 100 | 2.4 µM | > 100 µM | 0.498 µM | > 100 µM | 0.591 µM | > 100 µM | 0.287 µM | > 100 µM | > 100 µM | > 100 µM | 0.179 | > 100
